Test results as given in ChEMBL document CHEMBL5096192, “Recent advancements in anti-leishmanial research: Synthetic strategies and structural activity relationships” (Eur J Med Chem, 2021).
Values after ≈ are worked out from the molar mass of the structure shown. Values belong to the compound of their own block, whether it stands above or below them.

Legend:
Leishmania mexicana [1] = assay: Antileishmanial activity against promastigote form of Leishmania mexicana assessed as inhibition of parasite growth measured for 10 days by Neubauer counting chamber based analysis; type: functional, organism-based; conditions: 240 h
Leishmania infantum [2] = assay: Antileishmanial activity against promastigote form of Leishmania infantum BH 46 assessed as parasite growth inhibition measured after 48 hrs by Celltiter-Glo assay; type: functional, organism-based; conditions: BH 46, 48 h
[3] = Cytotoxicity against BALB/c mouse peritoneal macrophages assessed as reduction in cell viability measured after 48 hrs by luminescence based CellTiter-Glo assay; type: toxicity, Peritoneal macrophage
Leishmania amazonensis [4] = assay: Antileishmanial activity against promastigote form of Leishmania amazonensis (MHOM/BR/75/Josefa) assessed as inhibition of parasite growth measured after 72 hrs by Neubauer counting chamber based analysis; type: functional, organism-based
Leishmania mexicana [5] = assay: Antileishmanial activity against mammalian stage Leishmania mexicana MNYC/BZ/62/M379 axenic amastigotes assessed as inhibition of […] incubated for 24 hrs by alamar blue assay; type: functional; conditions: read-out: ED50 (the source's name)
[6] = Cytotoxicity against mouse bone marrow-derived macrophage cells assessed as reduction in cell viability measured after 24 hrs by resazurin assay; type: toxicity, cell-based, BMDM; conditions: bone marrow-derived macrophages
Leishmania infantum [7] = assay: Antileishmanial activity against Leishmania infantum MHOM/MA/67/ITMAP263 intracellular amastigotes infected in mouse bone marrow derived macrophage cells assessed as parasite growth inhibition measured after 24 hrs by DAPI staining based microscopic analysis; type: functional, organism-based; conditions: MHOM/MA/67/ITMAP263, Macrophage
Leishmania braziliensis [8] = assay: Antileishmanial activity against promastigote form of Leishmania braziliensis MHOM/CO/88/301-EGFP infected in human U-937 cells assessed as parasite growth inhibition measured after 72 hrs by flow cytometer analysis; type: functional, organism-based; conditions: U-937, 72 h
Leishmania panamensis [9] = assay: Antileishmanial activity against promastigote form of Leishmania panamensis MHOM/CO/87/UA140-EGFP infected in human U-937 cells assessed as parasite growth inhibition measured after 72 hrs by flow cytometer analysis; type: functional, organism-based; conditions: U-937, 72 h
Leishmania infantum [10] = assay: Antileishmanial activity against promastigote form of Leishmania infantum MHOM/BR/70/BH46 promastigote assessed as parasite growth inhibition incubated for 72 hrs by Neubauer chamber analysis; type: functional, organism-based; conditions: MHOM/BR/70/BH46, 72 h
Leishmania mexicana [11] = assay: Inhibition of recombinant Leishmania mexicana CPB2.8 delta CTE at 20 uM
Leishmania donovani [12] = assay: Antileishmanial activity against promastigote form of Leishmania donovani MHOM/IN/83/AG83 assessed as inhibition of promastigote growth incubated for 48 hrs by MTT reduction assay; type: functional, organism-based; conditions: MHOM/IN/83/AG83, 48 h
Leishmania donovani [13] = assay: Antileishmanial activity against Leishmania donovani MHOM/IN/83/AG83 intracellular amastigotes infected in mouse RAW264.7 cells assessed as parasite growth inhibition incubated for 48 hrs by Giemsa staining based microscopic analysis; type: functional, organism-based; conditions: MHOM/IN/83/AG83, RAW264.7, 48 h
[14] = Selectivity index, ratio of CC50 for cytotoxicity against human THP1 cells to IC50 for antileishmanial activity against promastigote form of Leishmania donovani; type: toxicity, cell-based; conditions: read-out: Ratio CC50/IC50
Leishmania donovani [15] = assay: Antileishmanial activity against promastigote form of Leishmania donovani assessed as inhibition of promastigote growth incubated for 48 hrs by Alamar blue assay; type: functional, organism-based
Leishmania panamensis [16] = assay: Antileishmanial activity against Leishmania panamensis MHOM/CO/87/UA140pIR-GFP intracellular amastigotes infected in human U-937 cells assessed as parasite growth inhibition measured after 72 hrs by flow cytometry analysis; type: functional, organism-based; conditions: U-937, 72 h
Leishmania amazonensis [17] = assay: Antileishmanial activity against Leishmania amazonensis IFLA/Br/67/PH8 intracellular amastigotes infected in BALB/c mouse peritoneal macrophages assessed as reduction in intracellular amastigotes incubated for 72 hrs by fluorometric analysis; type: functional, organism-based; conditions: IFLA/Br/67/PH8, 72 h
Leishmania amazonensis [18] = assay: Antileishmanial activity against promastigote form of Leishmania amazonensis (MHOM/BR/71973/M2269) assessed as parasite growth inhibition by MTT assay; type: functional, organism-based
Leishmania amazonensis [19] = assay: Antileishmanial activity against amastigote form of Leishmania amazonensis (MHOM/BR/71973/M2269) assessed as parasite growth inhibition by MTT assay; type: functional, organism-based
Leishmania amazonensis [20] = assay: Antileishmanial activity against promastigote form of Leishmania amazonensis (MHOM/BR/71973/M2269) assessed as parasite growth inhibition measured after 72 hrs by Neubauer counting chamber based analysis; type: functional, organism-based; conditions: MHOM/BR/71973/M2269, 72 h
Leishmania amazonensis [21] = assay: Antileishmanial activity against Leishmania amazonensis (MHOM/BR/71973/M2269) intracellular amastigotes infected in mouse peritoneal macrophages assessed as parasite growth inhibition incubated for 24 hrs by Giemsa staining based light microscopy analysis; type: functional, organism-based; conditions: MHOM/BR/71973/M2269, Peritoneal macrophage
Leishmania donovani [22] = assay: Antileishmanial activity against promastigote form of wild-type Leishmania donovani MHOM/80/IN/Dd8 assessed as inhibition of parasite growth incubated for 48 hrs by MTT assay; type: functional, organism-based; conditions: MHOM/80/IN/Dd8, 48 h
Leishmania infantum [23] = assay: Antileishmanial activity against Leishmania infantum MHOM/MA/67/ITMAP263 intracellular amastigotes infected in primary peritoneal mouse macrophages assessed as inhibition of parasite growth by cell based assay; type: functional, organism-based; conditions: MHOM/MA/67/ITMAP263, Peritoneal macrophage
Leishmania amazonensis [24] = assay: Antileishmanial activity against promastigote form of Leishmania amazonensis MHOM/BR/77/LTB0016 incubated for 24 hrs by MTT assay; type: functional, organism-based; conditions: MHOM/BR/77/LTB0016, 24 h
Leishmania braziliensis [25] = assay: Antileishmanial activity against promastigote form of Leishmania braziliensis MHOM/BR/75/M2904 promastigotes assessed as parasite growth inhibition incubated for 48 hrs by resazurin assay; type: functional, organism-based; conditions: MHOM/BR/75/M2904, 48 h
Leishmania amazonensis [26] = assay: Antileishmanial activity against promastigote form of Leishmania amazonensis IFLA/BR/1967/PH8 assessed as parasite growth inhibition incubated for 72 hrs by MTT assay; type: functional, organism-based; conditions: IFLA/BR/1967/PH8, 72 h

Compound: Fc1ccc(Nc2cnc3ccccc3c2)cc1
IC50 (Leishmania mexicana [1]): 41.9 µM

Compound: COc1ccc(-c2csc(N/N=C/c3ccccn3)n2)cc1
IC50 (Leishmania infantum [2]): 2.78 µM | CC50 at 48 h [3]: 1.35 µM

Compound: CC1=CC[C@@H](C(C)(C)NC(=S)N/N=C/c2cccc([N+](=O)[O-])c2)CC1
IC50 (Leishmania amazonensis [4]): 2.4 µM

Compound: CC1(C)CC[C@]2(NC(=O)N3CCC[C@H]3C(=O)O)CC[C@]3(C)C(=CC[C@@H]4[C@@]5(C)CC[C@@H]6OC(C)(C)OC[C@@]6(C)[C@@H]5CC[C@]43C)[C@@H]2C1
EC50 (Leishmania mexicana [5]): 4 µM

Compound: CCCCCCCCNCc1ccc2c(c1)C(=O)CC(C)(C)O2
CC50 at 24 h [6]: 40.2 µM | IC50 (Leishmania infantum [7]): 24.6 µM

Compound: O=C(N/N=C1\CCOc2ccccc21)c1ccccc1
EC50 (Leishmania braziliensis [8]): 12.1 µg/mL (≈ 45.4 µM) | EC50 (Leishmania panamensis [9]): 20.1 µg/mL (≈ 75.5 µM)

Compound: S=C(N/N=C/c1c[nH]c2c(Br)cc(Br)cc12)Nc1ccccc1
IC50 (Leishmania infantum [10]): 5.6 µM

inhibition (Leishmania mexicana [11]): 97%
Compound: Cc1cc(C)cc(S(=O)(=O)n2c(SCC(=O)Nc3ccccc3)nc3ccccc32)c1

Compound: COc1ccc(-c2nnc(/C=C/c3cn(-c4ccccc4)nc3-c3ccccc3)o2)cc1OC
IC50 (Leishmania donovani [12]): 40.1 µg/mL (≈ 89 µM) | IC50 (Leishmania donovani [13]): 66.8 µg/mL (≈ 148 µM)

Compound: CC(C)CCN1C(=O)C=CC1=O
selectivity ratio [14]: > 781 | IC50 (Leishmania donovani [15]): < 0.0128 µg/mL

Compound: Cn1cc[n+](CCCCCCCCOc2ccc(C(=O)/C=C/c3ccco3)cc2)c1
EC50 (Leishmania panamensis [16]): 8.39 µM

Compound: CCc1ccc(NC(=S)N/N=C/c2c[nH]c3c(C)cc(Br)cc23)cc1
IC50 (Leishmania infantum [10]): 4.36 µM

Compound: O=c1ccoc2cc(OCCCCCCCCCOc3cccc4cccnc34)ccc12
EC50 (Leishmania panamensis [16]): 6.11 µg/mL

IC50 (Leishmania amazonensis [17]): 7.61 µM
Compound: CCCCCCCCCCn1cc(COCC2CO2)[n+](C)n1 (stereo not drawn)

Compound: CCCc1cc(OC)c2oc(=O)c(C(=O)c3ccc([N+](=O)[O-])cc3)cc2c1
IC50 (Leishmania amazonensis [18]): 3.53 µM | IC50 (Leishmania amazonensis [19]): 12 µM

Compound: CC(C)COc1ccc2c(-c3ccccc3)cc(=O)oc2c1
IC50 (Leishmania amazonensis [20]): 21.4 µM | IC50 (Leishmania amazonensis [21]): 58.1 µM

Compound: Cn1cc[n+](CCCOc2ccc(C(=O)/C=C/c3ccco3)cc2)c1
EC50 (Leishmania panamensis [16]): 4.65 µM

Compound: CCCCCCCCCCCCCCCCOP(=O)([O-])OCC[N+](C)(C)C [MILTEFOSINE]
IC50 (Leishmania donovani [22]): 24.2 µM | IC50 (Leishmania infantum [23]): 4.5 µM

Compound: O=[N+]([O-])c1ccc(COc2ccc(-c3nc4ccccc4[nH]3)cc2)cc1
IC50 (Leishmania donovani [22]): 68 µM

Compound: N=C(N)c1ccc(OCCCCCOc2ccc(C(=N)N)cc2)cc1 [PENTAMIDINE]
IC50 (Leishmania amazonensis [24]): 12.3 µM

inhibition (Leishmania mexicana [11]): 97%
Compound: COC(=O)c1ccc(NC(=O)CSc2nc3ccccc3n2S(=O)(=O)c2cc(C)cc(C)c2)cc1

Compound: COC(=O)c1ccc(NC(=O)CSc2nc3ccc(Cl)cc3n2Cc2cc(C)cc(C)c2)c(Cl)c1
IC50 (Leishmania infantum [23]): 6.82 µM

Compound: CC(C)=CC1=C(OC(=O)CCc2cn(-c3ccc(C)cc3)nn2)C(=O)c2ccccc2C1=O
IC50 (Leishmania braziliensis [25]): 27.1 µM

Compound: O=C(C[Se]CC(=O)Nc1ccc([N+](=O)[O-])cc1)Nc1ccc([N+](=O)[O-])cc1
IC50 (Leishmania amazonensis [26]): 5.67 µg/mL (≈ 13 µM)

Compound: CC(C)=CCC1=C(OC(=O)CCc2cn(-c3ccc(C)cc3)nn2)C(=O)c2ccccc2C1=O
IC50 (Leishmania braziliensis [25]): 15.9 µM
